From PubChem BioAssay (NCI)
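Exposure lasted 48 hours, with cells grown in 96-well plates and compounds tested at five concentrations. GI50 is the concentration that inhibits growth by half. TGI is the concentration that stops growth completely.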

What was measured:
Test in all cases: NCI-60 cell line screen, 48 h
[1] = test system: A498 renal
[2] = test system: A549 NSCLC
[3] = test system: COLO 205 colon
[4] = test system: HCT-15 colon
[5] = test system: K-562 leukemia
[6] = test system: NCI/ADR-RES ovarian
[7] = test system: SK-MEL-2 melanoma
[8] = test system: SNB-75 CNS
[9] = test system: SR leukemia
[10] = test system: UACC-62 melanoma

| SMILES | GI50 [1] | TGI [1] | GI50 [2] | TGI [2] | GI50 [3] | TGI [3] | GI50 [4] | TGI [4] | GI50 [5] | TGI [5] | GI50 [6] | TGI [6] | GI50 [7] | TGI [7] | GI50 [8] | TGI [8] | GI50 [9] | TGI [9] | GI50 [10] | TGI [10] |
| --- | --- | --- | --- | --- | --- | --- | --- | --- | --- | --- | --- | --- | --- | --- | --- | --- | --- | --- | --- | --- |
| Cc1ccc(Cl)cc1Nc1nc(C(F)(F)F)ccc1C(=O)N1CCN(c2cccc(Cl)c2)CC1 | 65.6 µM | > 100 µM | > 100 µM | > 100 µM | > 100 µM | > 100 µM | > 100 µM | > 100 µM | > 100 µM | > 100 µM | > 100 µM | > 100 µM | > 100 µM | > 100 µM | 73.8 µM | > 100 µM | 3.06 µM | > 100 µM | 69.4 µM | > 100 µM |
| COc1ccc(C(O)c2nccn2C)c(OC)c1 (centres undefined) |  |  |  | > 100 µM |  | > 100 µM |  | > 100 µM |  | > 100 µM |  | > 100 µM |  | > 100 µM |  | > 100 µM |  | > 100 µM |  | > 100 µM |
| O=c1c2ccccc2sc2cccc(NCCCN3CCN(CCCNc4cccc5sc6ccccc6c(=O)c45)CC3)c12 |  | > 100 µM |  | > 100 µM |  | > 100 µM |  | > 100 µM |  | > 100 µM |  | > 100 µM |  | > 100 µM |  | > 100 µM |  | > 100 µM |  | > 100 µM |
| COc1ccc2[nH]cc(-c3nc(-c4c[nH]c5ncccc45)cs3)c2c1 | 1.16 µM | > 100 µM | 3.4 µM | > 100 µM | 0.661 µM | 3.88 µM | 2.61 µM | > 100 µM | 2.68 µM | > 100 µM | 3.75 µM | > 100 µM | 8.36 µM | > 100 µM | 2.31 µM | > 100 µM | 2.91 µM | > 100 µM | 3.66 µM | > 100 µM |
| COc1cc(CNCCCN2C(=O)c3ccc4c5c(ccc(c35)C2=O)C(=O)N(CCCNCc2cc(OC)c(OC)c(OC)c2)C4=O)cc(OC)c1OC | 0.627 µM | 1.41 µM | 0.305 µM | 0.977 µM | 0.139 µM | 0.352 µM | 1.18 µM | 3.55 µM | 0.309 µM | 2.85 µM | 9.16 µM | 39 µM | 0.562 µM | 1.52 µM | 0.589 µM | 1.33 µM | 0.18 µM | 1.62 µM | 0.793 µM | 1.57 µM |
| Ic1ccc(-n2nnnc2-c2cnoc2-c2ccccc2)cc1 | 22 µM | 74.4 µM | > 58.4 µM | > 100 µM | > 59 µM | > 100 µM | 29.1 µM | > 73.6 µM | 29.2 µM | > 66.6 µM | 33 µM | > 85.2 µM | > 94 µM | > 100 µM | > 56.8 µM | > 100 µM | 37.7 µM | > 100 µM | 29.3 µM | > 83.6 µM |
| COc1cc(-c2nn(-c3cccc(NC(=O)Nc4ccc(Cl)c(Cl)c4)c3)cc2-c2ccncc2)ccc1Cl | 1.14 µM | 4.59 µM | 0.745 µM | > 50 µM | 0.937 µM | 1.72 µM | 1.23 µM | > 50 µM | 0.89 µM | > 50 µM | 0.99 µM | 4.67 µM | 1.14 µM | 2.35 µM | 1.05 µM | 5.17 µM | 0.932 µM | 2.8 µM | 0.773 µM | 1.86 µM |
| CC(=O)OC12c3ccccc3-c3ccccc3C1C1C(=O)N(C)C(=O)C12Cl (centres undefined) |  | > 10 µM |  |  |  | > 10 µM |  | > 10 µM |  | > 10 µM |  | > 10 µM |  | > 10 µM |  | > 10 µM |  | > 10 µM |  |  |
| C1CSCCSCCS1 |  |  |  | > 100 µM |  | > 100 µM |  | > 100 µM |  | > 100 µM |  | > 100 µM |  |  |  | > 100 µM |  | > 100 µM |  | > 100 µM |
| O=C1NC(=S)NNC12c1ccccc1-c1ccccc12 |  | 9.93 µM |  | > 10 µM |  | > 10 µM |  | > 10 µM |  | > 10 µM |  | > 10 µM |  |  |  | > 10 µM |  | > 10 µM |  | > 10 µM |
| Cc1[nH]c2ccccc2c1-c1cc(-c2cc(-c3c(C)[nH]c4ccccc34)on2)no1 |  | > 100 µM |  | > 100 µM |  | > 100 µM |  | > 100 µM |  | > 100 µM |  | > 100 µM |  | > 100 µM |  | 66.8 µM |  | 96.7 µM |  | > 100 µM |
| O=c1cc2oc3cc(O)c(O)cc3c(-c3ccccc3O)c-2cc1O | 1.44 µM | 8.36 µM | 28.5 µM | > 100 µM | 36.3 µM | > 100 µM | 38.3 µM | > 100 µM | 5.76 µM | > 100 µM | 8.16 µM | 42 µM | 36.8 µM | > 100 µM | 3.81 µM | > 100 µM | 4.65 µM | > 100 µM | 6.25 µM | 86 µM |
| Cc1cn2c(/C=C3\C(=O)Nc4ccc(O)cc43)c(-c3ccc(Cl)cc3)nc2s1 | 16.8 µM | 38.8 µM | 19.1 µM | > 100 µM | 20.8 µM | 81.1 µM | 21.4 µM | > 100 µM | 10.4 µM | 40.9 µM | 21.5 µM | > 100 µM | 21.9 µM | 70.5 µM | 6.27 µM | 23.7 µM | 2.59 µM | 7.63 µM | 9.4 µM | 56.2 µM |
| Cc1ccc(/C=C/c2c(C(=O)/C=C/c3ccc(C(F)(F)F)cc3)c(C)nc3ccccc23)cc1 | 1.77 µM | 3.24 µM | 2.03 µM | 4.76 µM | 2.21 µM | 5.29 µM | 0.89 µM | 3.49 µM | 1.55 µM | > 100 µM | 2.22 µM | 5.92 µM | 1.83 µM | 3.92 µM | 1.23 µM | 2.48 µM | 0.451 µM | 4.97 µM | 1.55 µM | 3.02 µM |
| CCN1CCN=c2c3cc(OC)ccc3n3cnc4ccc1c2c43 |  | 0.735 µM |  | 0.67 µM |  | 0.606 µM |  | 0.432 µM |  | 0.4 µM |  | 0.489 µM |  | 0.808 µM |  | 1.4 µM |  | 0.158 µM |  | 0.975 µM |
